# Laboratory results reported in article PMC8374649, “IBI362 (LY3305677), a weekly-dose GLP-1 and glucagon receptor dual agonist, in Chinese adults with overweight or obesity: A randomised, placebo-controlled, multiple ascending dose phase 1b study” (EClinicalMedicine, 2021).
# Tested on: Chinese adults with overweight or obesity
# Test: Safety and tolerability (treatment emergent adverse events), multiple ascending dose phase 1b study
# Type: in vivo, human
# Method: The study included a 3-week screening period, a 12-week treatment period and an 8-week safety follow-up period. During the 12-week treatment period, the dose of IBI362 or placebo was escalated within each cohort according to one of the three dose-escalation schedules (Fig. S1). The dose-escalation regimen for the 3.0 mg cohort was 1.0 mg for 4 weeks, followed by 2.0 mg for 4 weeks and then 3.0 mg for the final 4 weeks. The dose-escalation regimen for the 4.5 mg cohort was 1.5 mg for 4 weeks, followed by 3.0 mg for 4 weeks and then 4.5 mg for the final 4 weeks. The dose-escalation regimen for the 6.0 mg cohort was 2.0 mg for 4 weeks, followed by 4.0 mg for 4 weeks and then 6.0 mg for the final 4 weeks. The 6.0 mg cohort started dosing after tolerability evaluation of 1.5 mg dosing in the 4.5 mg cohort. The internal unblinded safety monitoring group was responsible for the safety monitoring. All treatments were subcutaneously administered once a week. Investigators and authorized study personnel in each centre recorded the study data into the electronic case report forms (eCRFs), which were reviewed and validated by clinical research associates (CRAs). The data in the eCRFs were submitted to the electronic data capture (EDC) database. HbA1c, fasting plasma glucose and fasting insulin tests were performed in a central lab (Wuxi AppTec Inc.).
# The primary endpoints of the study were safety and tolerability of IBI362. Adverse events (AEs) were categorised according to the Medical Dictionary for Regulatory Activities system organ class and preferred terms. Treatment emergent adverse events (TEAEs) and serious adverse events were monitored in all participants throughout the treatment period and the safety follow-up period. The severity of the AEs (mild, moderate or severe) and the association between an AE and the study drug was assessed by investigators based on pre-specified criteria.
# Safety analyses were done in the safety population (defined as all participants who received at least one dose of the study treatment). Pharmacokinetic analyses were done in the pharmacokinetic population (defined as all participants who received at least one dose of IBI362 and had at least one valid plasma concentration assessment). Pharmacodynamic analyses were done in the pharmacodynamic population (defined as all participants who received at least one dose of the study treatment and had baseline and at least one valid assessment). Efficacy analyses were done in the efficacy population (defined as all participants who received at least one dose of the study treatment and had at least one post-baseline assessment).
# [1] = 3.0 mg cohort (1.0-2.0-3.0 mg sc once weekly, 4 weeks each), n = 8
# [2] = 4.5 mg cohort (1.5-3.0-4.5 mg sc once weekly, 4 weeks each), n = 8
# [3] = 6.0 mg cohort (2.0-4.0-6.0 mg sc once weekly, 4 weeks each), n = 8
compound,measurement,setting,value
CC(C)C[C@H](NC(=O)[C@H](CC(C)C)NC(=O)[C@H](Cc1c[nH]c2ccccc12)NC(=O)[C@H](CCC(=O)O)NC(=O)[C@@H](NC(=O)[C@H](Cc1ccccc1)NC(=O)[C@H](CCC(=O)O)NC(=O)[C@H](CCCCNC(=O)COCCOCCNC(=O)COCCOCCNC(=O)CC[C@H](NC(=O)CCCCCCCCCCCCCCCCCCC(=O)O)C(=O)O)NC(=O)[C@H](C)NC(=O)[C@H](CCCCN)NC(=O)[C@H](CCCCN)NC(=O)[C@H](CCC(=O)O)NC(=O)[C@H](CC(=O)O)NC(=O)[C@H](CC(C)C)NC(=O)[C@H](Cc1ccc(O)cc1)NC(=O)[C@H](CCCCN)NC(=O)[C@H](CO)NC(=O)[C@H](Cc1ccc(O)cc1)NC(=O)[C@H](CC(=O)O)NC(=O)[C@H](CO)NC(=O)[C@@H](NC(=O)[C@H](Cc1ccccc1)NC(=O)[C@@H](NC(=O)CNC(=O)[C@H](CCC(N)=O)NC(=O)C(C)(C)NC(=O)[C@@H](N)Cc1c[nH]cn1)[C@@H](C)O)[C@@H](C)O)C(C)C)C(=O)N[C@@H](CCC(=O)O)C(=O)NCC(=O)NCC(=O)N1CCC[C@H]1C(=O)N[C@@H](CO)C(=O)N[C@@H](CO)C(=O)NCC(N)=O [IBI362],Abdominal distension,[1],1 (12.5) n (%)
same,Abdominal pain,[1],0 n (%)
same,Atrioventricular block first degree,[1],1 (12.5) n (%)
same,Back pain,[1],1 (12.5) n (%)
same,Blood glucose increased,[1],0 n (%)
same,Calculus urinary,[1],1 (12.5) n (%)
same,Cardiac disorders (system organ class),[1],1 (12.5) n (%)
same,Constipation,[1],1 (12.5) n (%)
same,Decreased appetite,[1],1 (12.5) n (%)
same,Diarrhea,[1],0 n (%)
same,Dry mouth,[1],0 n (%)
same,Dyslipidaemia,[1],0 n (%)
same,Dysmenorrhoea,[1],1 (12.5) n (%)
same,Dyspepsia,[1],0 n (%)
same,Fatigue,[1],0 n (%)
same,Folliculitis,[1],0 n (%)
same,"Gastrointestinal AE, Mild",[1],2 (25.0) n (%)
same,"Gastrointestinal AE, Moderate",[1],1 (12.5) n (%)
same,Gastrointestinal disorders (system organ class),[1],4 (50.0) n (%)
same,Gastrointestinal inflammation,[1],1 (12.5) n (%)
same,General disorders and administration site conditions (system organ class),[1],1 (12.5) n (%)
same,Hiccups,[1],0 n (%)
same,Hyperlipidaemia,[1],0 n (%)
same,Hyperuricaemia,[1],0 n (%)
same,Hypoglycaemia event,[1],0 n (%)
same,Infections and infestations (system organ class),[1],4 (50.0) n (%)
same,"Injury, poisoning and procedural complications (system organ class)",[1],1 (12.5) n (%)
same,Investigations (system organ class),[1],0 n (%)
same,Menstruation irregular,[1],0 n (%)
same,Mental fatigue,[1],0 n (%)
same,Metabolism and nutrition disorders (system organ class),[1],1 (12.5) n (%)
same,Mouth ulceration,[1],1 (12.5) n (%)
same,Musculoskeletal and connective tissue disorders (system organ class),[1],1 (12.5) n (%)
same,Myocardial ischemia,[1],0 n (%)
same,Nasopharyngitis,[1],1 (12.5) n (%)
same,Nausea,[1],0 n (%)
same,Neutrophil count increased,[1],0 n (%)
same,Oropharyngeal pain,[1],0 n (%)
same,Proteinuria,[1],0 n (%)
same,Psychiatric disorders (system organ class),[1],0 n (%)
same,Pyrexia,[1],1 (12.5) n (%)
same,Renal and urinary disorders (system organ class),[1],1 (12.5) n (%)
same,Reproductive system and breast disorders (system organ class),[1],1 (12.5) n (%)
same,"Respiratory, thoracic and mediastinal disorders (system organ class)",[1],0 n (%)
same,Serious adverse event,[1],0 n (%)
same,Sinus tachycardia,[1],0 n (%)
same,Skin and subcutaneous tissue disorders (system organ class),[1],1 (12.5) n (%)
same,Soft tissue injury,[1],1 (12.5) n (%)
same,Starvation,[1],0 n (%)
same,TEAE (individuals with ≥ 1 TEAE),[1],6 (75.0) n (%)
same,Thermal burn,[1],0 n (%)
same,Tonsillitis,[1],1 (12.5) n (%)
same,Treatment-related AE,[1],3 (37.5) n (%)
same,Upper respiratory tract infection,[1],2 (25.0) n (%)
same,Urticaria,[1],1 (12.5) n (%)
same,Vomiting,[1],1 (12.5) n (%)
same,White blood cell count increased,[1],0 n (%)
same,Abdominal distension,[2],0 n (%)
same,Abdominal pain,[2],2 (25.0) n (%)
same,Atrioventricular block first degree,[2],0 n (%)
same,Back pain,[2],0 n (%)
same,Blood glucose increased,[2],0 n (%)
same,Calculus urinary,[2],0 n (%)
same,Cardiac disorders (system organ class),[2],2 (25.0) n (%)
same,Constipation,[2],0 n (%)
same,Decreased appetite,[2],5 (62.5) n (%)
same,Diarrhea,[2],3 (37.5) n (%)
same,Dry mouth,[2],2 (25.0) n (%)
same,Dyslipidaemia,[2],1 (12.5) n (%)
same,Dysmenorrhoea,[2],0 n (%)
same,Dyspepsia,[2],0 n (%)
same,Fatigue,[2],1 (12.5) n (%)
same,Folliculitis,[2],0 n (%)
same,Gastrointestinal AE,[2],5 (62.5) n (%)
same,"Gastrointestinal AE, Mild",[2],5 (62.5) n (%)
same,"Gastrointestinal AE, Moderate",[2],0 n (%)
same,Gastrointestinal disorders (system organ class),[2],5 (62.5) n (%)
same,Gastrointestinal inflammation,[2],0 n (%)
same,General disorders and administration site conditions (system organ class),[2],1 (12.5) n (%)
same,Hiccups,[2],0 n (%)
same,Hyperlipidaemia,[2],0 n (%)
same,Hyperuricaemia,[2],1 (12.5) n (%)
same,Hypoglycaemia event,[2],0 n (%)
same,Infections and infestations (system organ class),[2],2 (25.0) n (%)
same,"Injury, poisoning and procedural complications (system organ class)",[2],1 (12.5) n (%)
same,Investigations (system organ class),[2],1 (12.5) n (%)
same,Menstruation irregular,[2],0 n (%)
same,Mental fatigue,[2],1 (12.5) n (%)
same,Metabolism and nutrition disorders (system organ class),[2],6 (75.0) n (%)
same,Mouth ulceration,[2],0 n (%)
same,Musculoskeletal and connective tissue disorders (system organ class),[2],0 n (%)
same,Myocardial ischemia,[2],1 (12.5) n (%)
same,Nasopharyngitis,[2],0 n (%)
same,Nausea,[2],3 (37.5) n (%)
same,Neutrophil count increased,[2],1 (12.5) n (%)
same,Oropharyngeal pain,[2],1 (12.5) n (%)
same,Proteinuria,[2],2 (25.0) n (%)
same,Psychiatric disorders (system organ class),[2],1 (12.5) n (%)
same,Pyrexia,[2],0 n (%)
same,Renal and urinary disorders (system organ class),[2],2 (25.0) n (%)
same,Reproductive system and breast disorders (system organ class),[2],0 n (%)
same,"Respiratory, thoracic and mediastinal disorders (system organ class)",[2],1 (12.5) n (%)
same,Serious adverse event,[2],0 n (%)
same,Sinus tachycardia,[2],1 (12.5) n (%)
same,Skin and subcutaneous tissue disorders (system organ class),[2],0 n (%)
same,Soft tissue injury,[2],0 n (%)
same,Starvation,[2],0 n (%)
same,TEAE (individuals with ≥ 1 TEAE),[2],7 (87.5) n (%)
same,Thermal burn,[2],1 (12.5) n (%)
same,Tonsillitis,[2],0 n (%)
same,Treatment-related AE,[2],7 (87.5) n (%)
same,Upper respiratory tract infection,[2],2 (25.0) n (%)
same,Urticaria,[2],0 n (%)
same,Vomiting,[2],0 n (%)
same,White blood cell count increased,[2],1 (12.5) n (%)
same,Abdominal distension,[3],0 n (%)
same,Abdominal pain,[3],0 n (%)
same,Atrioventricular block first degree,[3],0 n (%)
same,Back pain,[3],0 n (%)
same,Blood glucose increased,[3],0 n (%)
same,Calculus urinary,[3],0 n (%)
same,Cardiac disorders (system organ class),[3],0 n (%)
same,Constipation,[3],0 n (%)
same,Decreased appetite,[3],1 (12.5) n (%)
same,Diarrhea,[3],3 (37.5) n (%)
same,Dry mouth,[3],0 n (%)
same,Dyslipidaemia,[3],0 n (%)
same,Dysmenorrhoea,[3],0 n (%)
same,Dyspepsia,[3],1 (12.5) n (%)
same,Fatigue,[3],0 n (%)
same,Folliculitis,[3],1 (12.5) n (%)
same,Gastrointestinal AE,[3],4 (50.0) n (%)
same,"Gastrointestinal AE, Mild",[3],3 (37.5) n (%)
same,"Gastrointestinal AE, Moderate",[3],1 (12.5) n (%)
same,Gastrointestinal disorders (system organ class),[3],4 (50.0) n (%)
same,Gastrointestinal inflammation,[3],0 n (%)
same,General disorders and administration site conditions (system organ class),[3],0 n (%)
same,Hiccups,[3],1 (12.5) n (%)
same,Hyperlipidaemia,[3],0 n (%)
same,Hyperuricaemia,[3],1 (12.5) n (%)
same,Hypoglycaemia event,[3],0 n (%)
same,Infections and infestations (system organ class),[3],1 (12.5) n (%)
same,"Injury, poisoning and procedural complications (system organ class)",[3],0 n (%)
same,Investigations (system organ class),[3],0 n (%)
same,Menstruation irregular,[3],0 n (%)
same,Mental fatigue,[3],0 n (%)
same,Metabolism and nutrition disorders (system organ class),[3],3 (37.5) n (%)
same,Mouth ulceration,[3],0 n (%)
same,Musculoskeletal and connective tissue disorders (system organ class),[3],0 n (%)
same,Myocardial ischemia,[3],0 n (%)
same,Nasopharyngitis,[3],0 n (%)
same,Nausea,[3],1 (12.5) n (%)
same,Neutrophil count increased,[3],0 n (%)
same,Oropharyngeal pain,[3],0 n (%)
same,Proteinuria,[3],0 n (%)
same,Psychiatric disorders (system organ class),[3],0 n (%)
same,Pyrexia,[3],0 n (%)
same,Renal and urinary disorders (system organ class),[3],0 n (%)
same,Reproductive system and breast disorders (system organ class),[3],0 n (%)
same,"Respiratory, thoracic and mediastinal disorders (system organ class)",[3],1 (12.5) n (%)
same,Serious adverse event,[3],0 n (%)
same,Sinus tachycardia,[3],0 n (%)
same,Skin and subcutaneous tissue disorders (system organ class),[3],0 n (%)
same,Soft tissue injury,[3],0 n (%)
same,Starvation,[3],1 (12.5) n (%)
same,TEAE (individuals with ≥ 1 TEAE),[3],6 (75.0) n (%)
same,Thermal burn,[3],0 n (%)
same,Tonsillitis,[3],0 n (%)
same,Treatment-related AE,[3],5 (62.5) n (%)
same,Upper respiratory tract infection,[3],0 n (%)
same,Urticaria,[3],0 n (%)
same,Vomiting,[3],1 (12.5) n (%)
same,White blood cell count increased,[3],0 n (%)
same,Magnitude of heart rate increase,"12-lead ECG, first 6 weeks, more prominent later, especially 6.0 mg cohort, declining from week 9 (Fig. S3)",mild
same,"Amylase, lipase and calcitonin levels",all IBI362 treatment groups (Fig S4),increased in all IBI362 treatment groups but remained mostly within the normal reference range
same,Discontinuation of the study due to safety reason,all cohorts,No participant discontinued the study due to safety reason
same,Hypoglycaemia event or serious adverse event,all cohorts,No hypoglycaemia event or serious adverse event occurred
same,Investigator suspected pancreatitis,all cohorts,No investigator suspected pancreatitis was reported
same,Participants with at least one TEAE,"all participants receiving IBI362 (n = 24), 19 participants",79.2%
same,Nausea,"all participants receiving IBI362 (n = 24), four participants",16.7%
same,Decreased appetite,"all participants receiving IBI362 (n = 24), seven participants",29.2%
same,Diarrhea,"all participants receiving IBI362 (n = 24), six participants",25.0%
